In general, half-life refers to the time in which the quantity being followed falls by half. Higher therefore signals slow loss.

The source of these data is patent US8987200B2, “Polycationic calcium modulator peptides for the treatment of hyperparathyroidism and hypercalcemic disorders” (KAI Pharmaceuticals, Inc., priority 2006, dated 2015).

No end group written: not given here.

For series [1] the following is noted: rat, plasma.
Series [2] in a line: In vitro activity of free-thiol calcium modulating peptide compared with KAI-1455. The settings on record: tested in vitro, relative to KAI-1455.
Another series concerns anesthetized rats. Briefly: 3 hour infusion study of KAI-1633 in anesthetized rats, with steady state plasma concentration by ELISA (Example 14). In kind it is in vivo, rat. As to conditions: 9 mg/kg iv infusion for 3 hours. From the text:
The study was designed to determine the contribution of the disulfide bond and/or cysteine residue on the calcium modulator peptide to the reductions in total calcium and plasma PTH.
Control animals (n=4) were infused with saline.
(ELISA stands for enzyme-linked immunosorbent assay.)

Consider `CC[C@H](C)[C@H](NC(=O)[C@@H]1CCCN1C(=O)[C@H](C)NC(=O)[C@H](CC(=O)O)NC(=O)[C@H](Cc1c[nH]cn1)NC(=O)[C@@H](N)CSSC[C@H](N)C(=O)N[C@@H](Cc1ccc(O)cc1)C(=O)NCC(=O)N[C@@H](CCCNC(=N)N)C(=O)N[C@@H](CCCCN)C(=O)N[C@@H](CCCCN)C(=O)N[C@@H](CCCNC(=N)N)C(=O)N[C@@H](CCCNC(=N)N)C(=O)N[C@@H](CCC(N)=O)C(=O)N[C@@H](CCCNC(=N)N)C(=O)N[C@@H](CCCNC(=N)N)C(=O)N[C@@H](CCCNC(=N)N)C(=O)O)C(=O)NCC(=O)N[C@@H](Cc1ccc(O)cc1)C(=O)N[C@@H](CC(=O)O)C(=O)O` [KP-9706], for which the half-life in series [1] is around 5 min.

In series [1], `CC(C)C[C@H](NC(=O)[C@H](CO)NC(=O)CNC(=O)[C@H](CC(C)C)NC(=O)[C@H](CCC(=O)O)NC(=O)[C@H](Cc1ccc(O)cc1)NC(=O)[C@H](CO)NC(=O)[C@H](CC(N)=O)NC(=O)[C@H](Cc1ccccc1)NC(=O)[C@H](CO)NC(=O)[C@@H](N)CSSC[C@H](N)C(=O)N[C@@H](Cc1ccc(O)cc1)C(=O)NCC(=O)N[C@@H](CCCNC(=N)N)C(=O)N[C@@H](CCCCN)C(=O)N[C@@H](CCCCN)C(=O)N[C@@H](CCCNC(=N)N)C(=O)N[C@@H](CCCNC(=N)N)C(=O)N[C@@H](CCC(N)=O)C(=O)N[C@@H](CCCNC(=N)N)C(=O)N[C@@H](CCCNC(=N)N)C(=O)N[C@@H](CCCNC(=N)N)C(=O)O)C(=O)O` [KP-9803] returned a half-life of around 10 min.

Regarding “Ac-CYGRKKRRQRRR-NH2 [SEQ ID NO:5, capped TAT-derived peptide having an N-terminal cysteine residue containing a free thiol]”, the Activity in vitro result in series [2] is “comparable to KAI-1455”.

As to EAVSLKPTGGYGRKKRRQRRR-NH2 [KAI-1633], in the series on anesthetized rats, the “Plasma PTH levels” value is “did not show a reduction” and the Total calcium entry was “did not show a reduction”.
